Measurements reported in BindingDB's records for patent US10626113 (Columbia University, 2020).

biological target: cGMP-specific 3',5'-cyclic phosphodiesterase (Homo sapiens, UniProt O76074); test: PDE5 Inhibition Assay
Method: Test compounds were supplied as liquid solutions of 10 mM concentration in DMSO. Sildenafil, used as a standard was dissolved in DMSO. […] 0.1 ng of enzyme was used per reaction, and the substrate was 100 nM FAM-cGMP.Assay conditions: A series of dilutions of the test compounds were prepared with 10% DMSO in assay buffer and 5 μl of the dilution was added to a 50 μl reaction so that the final concentration of DMSO is 1% in all of reactions. The enzymatic reactions were conducted at room temperature for 60 minutes in a 50 μl mixture containing PDE assay buffer, 100 nM FAM-cAMP or 100 nM FAM-cGMP, a PDE enzyme, and the test compound. After the enzymatic reaction, 100 μl of a binding solution (1:100 dilution of the binding agent with the binding agent diluent) was added to each reaction and the reaction was performed at room temperature for 60 minutes. […] Fluorescence intensity is converted to fluorescence polarization using the Tecan Magellan6 software. The fluorescence polarization data were analyzed using the computer software, Graphpad Prism. The fluorescence polarization (FPt) in absence of the compound in each data set was defined as 100% activity. In the absence of PDE and the compound, the value of fluorescent polarization (FPb) in each data set was defined as 0% activity. The percent activity in the presence of the compound was calculated according to the following equation: % activity=(FP−FPb)/(FPt−FPb)×100%, where FP=the fluorescence polarization in the presence of the compound.

Compound	IC50
COc1ccc(C(C)Nc2c3c(nc4ccc(C#N)cc24)CCN(C(C)=O)C3)cc1Cl (centres undefined) [US10899756, Compound V]	26.9 nM
COc1ccc(Nc2c3c(nc4ccc(C#N)cc24)CCN(C(C)=O)C3)cc1Cl [US10899756, Compound S]	593 nM
COc1cc(Nc2c3c(nc4ccc(C#N)cc24)CCN(C(C)=O)C3)ccc1Cl [US10899756, Compound T]	425 nM
COc1ccc(CCNc2c3c(nc4ccc(C#N)cc24)CCN(C(C)=O)C3)cc1Cl [US10899756, Compound W]	10.6 nM
